Assay results from patent US4562176A, “Method and composition for treating cancer” (priority 1985, dated 1985).
≈ marks a conversion by molar mass, not a printed value.

How the values were obtained:
DNA = assay: DNA-drug binding by difference spectral (absorption and CD) techniques; conditions: difference spectral or ΔTm techniques
Source text: ^b Diff. Absorption Spectra is the calculated absorption spectra
obtained by subtracting the spectrum of the DNAbound analogue from the
spectrum of the free analogue, measured at 340-600 nm.
^c Diff. CD Spectra is the calculated CD Spectra obtained as the
difference of the DNAbound from the combined individual spectra of
analogues and DNA at 340-600 nm.
Medium: 0.01 M phosphate containing 10^-4 EDTA, buffer pH 7.0.
DNA-DRUG BINDING BY DIFFERENCE SPECTRAL AND THERMAL DEVATURATION OF DNA (ΔTm) TECHNIQUES
These experiments were performed according to the methods described by Sengupta et al., Cancer Chemother. Rep., 1974, 58, p. 35, Sengupta et al, J. Med. Chem., 1981, 24, p. 1052 and Sengupta et al, 1983, 26, p. 448, Sengupta et al, 1978, Biochem. Biophys Acta, 521, p. 89.

[1] = tested on: P388 lymphocytic leukemia; assay: In vivo P388 assay; design: species or system mice; conditions: ip days 1,5,9; for % ILS (percent increase in life span) / MST (median survival time) / Cure (over 60 day survivors): at optimum dose; for % ILS (percent increase in life span) / MST (median survival time): CDF1 male mice; for MST (median survival time): control MST 11.0 days; for Cure (over 60 day survivors): group of 7 CDF1 male mice, average of 2 experiments
Protocol: ^c 10^6 P388 cells implanted intraperitoneally on day 0 into a
group of 7 CDF1 male mice. Drugs were administered, also ip, in 10%
Me2 SO--saline on days 1,5,9. Test solutions were kept at 0-4.degree
C., protected from light.
These analogues were tested for antitumor activity against P388 lymphocytic leukemia in male CDF1 hybrid mice (Table 6). The tumor was implanted intraperitoneally (ip) with 10^6 cells. The drugs were administered once daily on days 1, 5, 9 beginning 1 day after implantation.

[2] = tested on: human lymphoblastic leukemia cells (CCRF-CEM); assay: In vitro growth inhibition of CCRF-CEM cells; assay type: cell-based; conditions: for In Vitro (CCRF-CEM) ID50: cells in log-phase growth, suspension culture, final growth medium 5% Me2SO
Protocol: ^b Human lymphoblastic luekemia cells in logphase growth and in a
suspension culture. Compounds were dissolved in Me2 SO medium, final
growth medium contained 5% Me2 SO.
In vitro growth inhibition of the analogues were assayed against human lymphoblastic leukemia cells (CCRF-CEM) in log phase. The most cyctoxic are AMD-OZN analogues 2b and 2g and AMD-OZL analogues 4a-4c. However, compared to AMD, they are several fold less cytotoxic to CEM-cells in vitro.

[3] = Solubility in distilled water
Protocol: SOLUBILITY OF ACTINOMYCIN D AND ANALOGUES 2b, 3b AND 4b IN DISTILLED WATER AT 20° C. AND 4° C.

DNA binding (in words) (DNA) | Compound | % ILS (percent increase in life span) [1] | MST (median survival time) [1] | Cure (over 60 day survivors) [1] | In Vitro (CCRF-CEM) ID50 [2] | cytotoxicity to CEM cells (in words) ([2]; CCRF-CEM in log phase) | relative solubility in water (in words) [3] | solubility in distilled water ([3]; 4° C.) | solubility in distilled water ([3]; 20° C.) | antitumor activity against P388 (in words) ([1]; CDF1 mice) | activity against human cancer cells (in words) ([2]; human cancer cells)
binds to DNA strongly by intercalation | Cc1c2oc3c(C)ccc(C(=O)N[C@@H]4C(=O)N[C@H](C(C)C)C(=O)N5CCC[C@H]5C(=O)N(C)CC(=O)N(C)[C@@H](C(C)C)C(=O)O[C@@H]4C)c3nc-2c(C(=O)N[C@@H]2C(=O)N[C@H](C(C)C)C(=O)N3CCC[C@H]3C(=O)N(C)CC(=O)N(C)[C@@H](C(C)C)C(=O)O[C@@H]2C)cc1=O [2-deamino AMD] | – | – | – | – | – | – | – | – | – | –
– | Cc1ccc(C(=O)N[C@@H]2C(=O)N[C@H](C(C)C)C(=O)N3CCC[C@H]3C(=O)N(C)CC(=O)N(C)[C@@H](C(C)C)C(=O)O[C@@H]2C)c2c1Oc1c(c(C(=O)N[C@@H]3C(=O)N[C@H](C(C)C)C(=O)N4CCC[C@H]4C(=O)N(C)CC(=O)N(C)[C@@H](C(C)C)C(=O)O[C@@H]3C)c3nc(-c4ccccc4Cl)c(=O)oc3c1C)N2 [Compound 2c] | 172% | 30 days | 1/7 | 1.8 µg/mL | – | – | – | – | – | –
– | Cc1ccc(C(=O)N[C@@H]2C(=O)N[C@H](C(C)C)C(=O)N3CCC[C@H]3C(=O)N(C)CC(=O)N(C)[C@@H](C(C)C)C(=O)O[C@@H]2C)c2c1Oc1c(c(C(=O)N[C@@H]3C(=O)N[C@H](C(C)C)C(=O)N4CCC[C@H]4C(=O)N(C)CC(=O)N(C)[C@@H](C(C)C)C(=O)O[C@@H]3C)c3nc(-c4cccc(Cl)c4)c(=O)oc3c1C)N2 [Compound 2d] | 164% | 29 days | 0/7 | 1.6 µg/mL | – | – | – | – | – | –
– | Cc1ccc(C(=O)N[C@@H]2C(=O)N[C@H](C(C)C)C(=O)N3CCC[C@H]3C(=O)N(C)CC(=O)N(C)[C@@H](C(C)C)C(=O)O[C@@H]2C)c2c1Oc1c(c(C(=O)N[C@@H]3C(=O)N[C@H](C(C)C)C(=O)N4CCC[C@H]4C(=O)N(C)CC(=O)N(C)[C@@H](C(C)C)C(=O)O[C@@H]3C)c3nc(-c4ccc(Cl)cc4)c(=O)oc3c1C)N2 [Compound 2e] | 164% | 29 days | 0/7 | 1.6 µg/mL | – | – | – | – | – | –
– | Cc1ccc(C(=O)N[C@@H]2C(=O)N[C@H](C(C)C)C(=O)N3CCC[C@H]3C(=O)N(C)CC(=O)N(C)[C@@H](C(C)C)C(=O)O[C@@H]2C)c2c1Oc1c(c(C(=O)N[C@@H]3C(=O)N[C@H](C(C)C)C(=O)N4CCC[C@H]4C(=O)N(C)CC(=O)N(C)[C@@H](C(C)C)C(=O)O[C@@H]3C)c3nc(-c4ccc(Cl)cc4Cl)c(=O)oc3c1C)N2 [Compound 2f] | 155% | 28 days | 0/7 | 3.2 µg/mL | – | – | – | – | – | –
– | Cc1ccc(C(=O)N[C@@H]2C(=O)N[C@H](C(C)C)C(=O)N3CCC[C@H]3C(=O)N(C)CC(=O)N(C)[C@@H](C(C)C)C(=O)O[C@@H]2C)c2c1Oc1c(c(C(=O)N[C@@H]3C(=O)N[C@H](C(C)C)C(=O)N4CCC[C@H]4C(=O)N(C)CC(=O)N(C)[C@@H](C(C)C)C(=O)O[C@@H]3C)c3nc(-c4c(F)c(F)c(F)c(F)c4F)c(=O)oc3c1C)N2 [Compound 2g] | 186% | 31.5 days | 1/7 | 0.64 µg/mL | most cyctoxic | – | – | – | – | –
– | CCCCCCc1nc2c(C(=O)N[C@@H]3C(=O)N[C@H](C(C)C)C(=O)N4CCC[C@H]4C(=O)N(C)CC(=O)N(C)[C@@H](C(C)C)C(=O)O[C@@H]3C)c3c(c(C)c2oc1=O)Oc1c(C)ccc(C(=O)N[C@@H]2C(=O)N[C@H](C(C)C)C(=O)N4CCC[C@H]4C(=O)N(C)CC(=O)N(C)[C@@H](C(C)C)C(=O)O[C@@H]2C)c1N3 [Compound 2h] | 127% | 25 days | 0/7 | 2.08 µg/mL | – | – | – | – | – | –
– | Cc1ccc(C(=O)N[C@@H]2C(=O)N[C@H](C(C)C)C(=O)N3CCC[C@H]3C(=O)N(C)CC(=O)N(C)[C@@H](C(C)C)C(=O)O[C@@H]2C)c2c1Oc1c(c(C(=O)N[C@@H]3C(=O)N[C@H](C(C)C)C(=O)N4CCC[C@H]4C(=O)N(C)CC(=O)N(C)[C@@H](C(C)C)C(=O)O[C@@H]3C)c3nc(-c4ccc5ccccc5c4)c(=O)oc3c1C)N2 [Compound 2i, 3-(2-NAPHTHYL)-10,12-DIMETHYL-2H,6H-OXAZINO[3,2-b]PHENOXAZINE-2-ONE 5,7-BIS[CARBONYL-L-THREONYL-D-VALYL-L-PROLYLSARCOSYL-L-N-METHYLVALINE-(THR EONINE HYDROXYL)] LACTONE] | 136% | 26 days | 0/7 | 1 µg/mL | – | – | – | – | – | –
– | Cc1ccc(C(=O)N[C@@H]2C(=O)N[C@H](C(C)C)C(=O)N3CCC[C@H]3C(=O)N(C)CC(=O)N(C)[C@@H](C(C)C)C(=O)O[C@@H]2C)c2c1Oc1c(c(C(=O)N[C@@H]3C(=O)N[C@H](C(C)C)C(=O)N4CCC[C@H]4C(=O)N(C)CC(=O)N(C)[C@@H](C(C)C)C(=O)O[C@@H]3C)c3nc(-c4ccccc4)oc3c1C)N2 [Compound 3b, 2-PHENYL-9,11-DIMETHYL-5H-OXAZOLO[4,5-b]PHENOXAZINE 4,6-BIS[CARBONYL-L-THREONYL-D-VALYL-L-PROLYLSARCOSYL-L-N-METHYL-VALINE-(TH REONINE HYDROXYL)] LACTONE] | 109% | 23 days | 0/7 | 9 µg/mL | – | – | – | – | – | –
– | Cc1ccc(C(=O)N[C@@H]2C(=O)N[C@H](C(C)C)C(=O)N3CCC[C@H]3C(=O)N(C)CC(=O)N(C)[C@@H](C(C)C)C(=O)O[C@@H]2C)c2c1Oc1c(c(C(=O)N[C@@H]3C(=O)N[C@H](C(C)C)C(=O)N4CCC[C@H]4C(=O)N(C)CC(=O)N(C)[C@@H](C(C)C)C(=O)O[C@@H]3C)c3nc(-c4c(F)c(F)c(F)c(F)c4F)oc3c1C)N2 [Compound 3c] | 72% | 19 days | 0/7 | 12.5 µg/mL | – | – | – | – | – | –
– | Cc1c2oc3c(C)c4oc(-c5ccccc5)nc4c(C(=O)N[C@@H]4C(=O)N[C@H](C(C)C)C(=O)N5CCC[C@H]5C(=O)N(C)CC(=O)N(C)[C@@H](C(C)C)C(=O)O[C@@H]4C)c3nc-2c(C(=O)N[C@@H]2C(=O)N[C@H](C(C)C)C(=O)N3CCC[C@H]3C(=O)N(C)CC(=O)N(C)[C@@H](C(C)C)C(=O)O[C@@H]2C)cc1=O [Compound 4b, 2-PHENYL-9,11-DIMETHYL-8-OXO-8H-OXAZOLO[4,5-b]PHENOXAZINE 4,6-BIS[CARBONYL-L-THREONYL-D-VALYL-L-PROLYLSARCOSYL-L-N-METHYLVALINE-(THR EONINE HYDROXYL)] LACTONE] | 300% | 44 days | 2/7 | 0.31 µg/mL | – | more soluble in water at 4 °C than at 20 °C | 11000 µg/mL (≈ 8.1 mM) | 1700 µg/mL (≈ 1.25 mM) | most active | highest human antitumor effects
– | Cc1c2oc3c(C)c4oc(-c5c(F)c(F)c(F)c(F)c5F)nc4c(C(=O)N[C@@H]4C(=O)N[C@H](C(C)C)C(=O)N5CCC[C@H]5C(=O)N(C)CC(=O)N(C)[C@@H](C(C)C)C(=O)O[C@@H]4C)c3nc-2c(C(=O)N[C@@H]2C(=O)N[C@H](C(C)C)C(=O)N3CCC[C@H]3C(=O)N(C)CC(=O)N(C)[C@@H](C(C)C)C(=O)O[C@@H]2C)cc1=O [Compound 4c] | 172% | 30 days | 1/7 | 0.63 µg/mL | – | – | – | – | – | –
